Test [1] deals with T1, SLBRGspB (Streptococcus gordonii, UniProt Q939N5).
T1 construct: gene gspB
On the set-up: ELISA, binding of biotinylated glycans to immobilized GST-SLBR (500 nM), absorbance at 450 nm. To be noted: biotinylated glycan, binder.

The subject of test [2] is SLBRSK678. In words: ELISA, immobilized GST-SLBR. Further details: species or system Streptococcus sanguinis. To be noted: labelled compound (biotinylated glycan); 500 nM immobilized GST-SLBR. A general note: An ELISA detects its analyte on a solid surface through an enzyme-linked reagent.
In test [3] the target is T2, SLBRHsa (Streptococcus gordonii, UniProt A8AWU7). Format: binding. Further details: gene hsa. To be noted: labelled compound (biotinylated glycan); 500 nM immobilized GST-SLBR.
In test [4] the test system is SLBRUB10712. In words: ELISA, immobilized GST-SLBR. The settings on record: labelled compound (biotinylated glycan); 500 nM immobilized GST-SLBR. On the set-up: species or system Streptococcus gordonii.
Test [5] deals with T2, SLBRHsa. Further details: gene hsa; ELISA: GST fusion (pGEX-3X); crystals: His6-MBP tag cleaved with thrombin; E. coli. To be noted: binder.
For test [6], the target named is T1, SLBRGspB. In words: ELISA, immobilized GST-SLBR. In kind it is binding. To be noted: labelled compound (biotinylated glycan).

≈ marks a conversion by molar mass, not a printed value. Read-outs that look alike come from different tables or passages of the source.

T2 sequence (A8AWU7 220-453): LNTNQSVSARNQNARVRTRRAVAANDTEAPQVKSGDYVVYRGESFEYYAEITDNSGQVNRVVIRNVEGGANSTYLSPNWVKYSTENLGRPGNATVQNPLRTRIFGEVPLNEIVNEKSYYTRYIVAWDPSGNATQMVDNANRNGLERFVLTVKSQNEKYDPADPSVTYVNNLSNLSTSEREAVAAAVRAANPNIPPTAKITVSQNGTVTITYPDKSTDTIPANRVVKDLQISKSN
T1 sequence (Q939N5 245-604): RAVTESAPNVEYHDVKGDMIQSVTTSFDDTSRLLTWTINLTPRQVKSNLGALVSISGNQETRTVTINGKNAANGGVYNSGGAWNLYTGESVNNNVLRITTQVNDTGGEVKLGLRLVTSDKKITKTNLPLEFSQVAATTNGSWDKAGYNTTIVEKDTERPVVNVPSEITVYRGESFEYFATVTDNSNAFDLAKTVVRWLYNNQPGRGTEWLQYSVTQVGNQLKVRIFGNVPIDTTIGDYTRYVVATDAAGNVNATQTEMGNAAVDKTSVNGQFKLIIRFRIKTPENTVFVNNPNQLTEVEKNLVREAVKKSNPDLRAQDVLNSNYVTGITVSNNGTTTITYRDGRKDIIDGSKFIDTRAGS

`CC(=O)N[C@H]1[C@H]([C@H](O)[C@H](O)CO)O[C@@](O[C@H]2[C@@H](O)[C@@H](CO)O[C@@H](O[C@H]3[C@H](O)[C@@H](NC(C)=O)C(O)O[C@@H]3CO)[C@@H]2O)(C(=O)O)C[C@@H]1O` (stereo partly shown) [3’-sialyl-N-acetyllactosamine]: the EC50 is over 7410 nM in test [1] (read-out: 3'sLn), 0.90 ± 0.51 µg/mL (≈ 1.33 µM) in test [2], 2390 nM in test [3] and 0.13 ± 0.19 µg/mL (≈ 0.193 µM) in test [4].

With `CC(=O)N[C@H]1[C@H]([C@H](O)[C@H](O)CO)O[C@@](O[C@H]2[C@@H](O)[C@@H](CO)O[C@@H](O[C@H]3[C@H](O[C@@H]4O[C@@H](C)[C@@H](O)[C@@H](O)[C@@H]4O)[C@@H](NC(C)=O)C(O)O[C@@H]3COS(=O)(=O)O)[C@@H]2O)(C(=O)O)C[C@@H]1O` (stereo partly shown) [6-O-sulfo-sialyl Lewis X], the values for the EC50 in test [2], in test [4] and in test [5] (read-out: 6S-sLe^X) were 0.63 ± 0.36 µg/mL (≈ 0.699 µM), 0.14 ± 0.10 µg/mL (≈ 0.155 µM) and over 5550 nM, respectively.

With `CC(=O)N[C@H]1[C@H]([C@H](O)[C@H](O)CO)O[C@@](O[C@H]2[C@@H](O)[C@@H](CO)O[C@@H](O[C@H]3[C@H](O)[C@@H](CO)OC(O)[C@@H]3NC(C)=O)[C@@H]2O)(C(=O)O)C[C@@H]1O` (stereo partly shown) [sialyl Lewis^C], the EC50 in test [1] (read-out: sLe^C) was over 7410 nM; in test [3], 993 nM.

Turning to `CC(=O)N[C@H]1[C@H]([C@H](O)[C@H](O)CO)O[C@@](O[C@H]2[C@@H](O)[C@@H](CO)O[C@@H](O[C@H]3[C@@H](O)[C@@H](CO)OC(O)[C@@H]3NC(C)=O)[C@@H]2O)(C(=O)O)C[C@@H]1O` (stereo partly shown) [sialyl-T antigen], the figures for the EC50 in test [1] (read-out: sTa) and in test [3] were 119 nM and 178 nM, respectively. The “ELISA, immobilized GST-SLBR” value in test [6] is on record as “recapitulated here by ELISA showing concentration-dependent binding”.

In the case of `CC(=O)N[C@H]1[C@H]([C@H](O)[C@H](O)CO)O[C@@](O[C@H]2[C@@H](O)[C@@H](CO)O[C@@H](O[C@@H]([C@H](O[C@@H]3O[C@@H](C)[C@@H](O)[C@@H](O)[C@@H]3O)[C@H](C=O)NC(C)=O)[C@H](O)CO)[C@@H]2O)(C(=O)O)C[C@@H]1O` [sLe^X, sialyl Lewis X], in test [5] (read-out: sLe^X), the EC50 is over 6090 nM.

For the origin of these results see article PMC9117288, “Origins of glycan selectivity in streptococcal Siglec-like adhesins suggest mechanisms of receptor adaptation” (Nature Communications, 2022).
